In one series the target is T1, adenosine receptors A2A (Homo sapiens, UniProt P29274).
T1 construct: expressed in transfected cells; host or cells: HEK293 (hADORA2A-HEK293)
Put plainly: TR-FRET-based cAMP accumulation assay in hADORA2A-HEK293 cells. Format: cell-based. The settings on record: NECA at EC80, hADORA2A-HEK293, read-out: A2AR activity (IC50). As for the experimental part: The inhibitory effects of the test compounds on the adenosine receptors A2A were evaluated by TR-FRET-based cAMP accumulation assay. The method included, in HEK293 cells (hADORA2A-HEK293) expressing A2AR, the production of cAMP stimulated by NECA and the inhibitory effect of A2A receptor antagonists on cAMP. All cells were cultured in a complete medium at 37° C. in the presence of 5% CO2. After being digested with trypsin, the cells were collected by centrifugation at 200 g for 5 minutes. The cells were resuspended in a fresh complete medium, and then the cell viability was counted by a trypan blue exclusion method. […] The cells were diluted with Hank's buffer solution containing HEPES (5 mM), BSA stabilizer (0.1%) and Rolipram (10 μM), then added to a 384-well white non-transparent plate (cells/well, 10 μl/well), and incubated with the test compound at an appropriate concentration (11 concentrations) for 20 minutes at room temperature. Then, the A2A receptor agonist NECA (final concentration=EC80, which was determined in the same experiment performed earlier) was added to the sample, and the sample was incubated again at 37° C. for 30 minutes.
An inhibition rate (%) was calculated according to the following formula, and an IC50 value was calculated from a concentration-inhibition (%) curve after log conversion.
A curve corresponding to the dose was fitted by using XLfit software and the IC50 was determined.
Background: In TR-FRET formats the signal depends on donor and acceptor labels being close together.

Series [1] is described as follows: Pharmacokinetics of Compounds 22, 27 and 40 in SD rats after oral administration for 7 consecutive days. It counts as in vivo. The following applies: for Accumulation after consecutive administration: SD rats; for AUC / AUC(0-t) / Cmax / Tmax: rat, plasma; for AUC / Cavg / Cmin / AUC(0-t) / Cmax / Tmax: male SD rats; for AUC(0-t) / Cmax / Tmax: male, po, 30 mg/kg; for Tmax: median. On the procedure:
12 male SD rats (about 7-9 weeks old on the day of administration, 283.0-298.1 g) were purchased from SPF (Beijing) Biotechnology Co., Ltd. They were randomly divided into 3 groups, with 4 rats in each group, and received orally administration once daily for 7 consecutive days. Compound 27 was administrated to Group 1 at 30 mg/kg, Compound 22 was administrated to Group 2 at 30 mg/kg, and Compound 40 was administrated to Group 3 at 30 mg/kg. All animals had free access to water and diet during dosing.
0.3366 g of Compound 27, 0.3333 g of Compound 22 and 0.3366 g of Compound 40 were weighed out respectively, and dissolved in 44 mL of PEG400 with stirring and ultrasonication; 50 mL of PBS was added to the resulting mixture, stirred and sonicated for complete dissolution; PBS was added to fix the volume to the final volume of 110 mL, thereby obtaining the target formulation solution with the final concentration of 3.0 mg/mL. The prepared formulation solution was divided into 7 portions, each of 15 mL, and stored in a refrigerator at 4° C. Before administration, the formulation was held at room temperature, until its temperature returned to room temperature; the formulation was stirred at room temperature for at least 10 minutes; and the stirring continued during the administration. The entire process for preparing the formulation was operated under yellow light, and during transferring, the prepared formulation was wrapped with tin foil to protect it from light.
The concentrations of Compounds 27, 22 and 40 in the plasma of SD rats were determined by liquid chromatography-mass spectrometry, with […] as the internal standard compound. With the mass spectrometer scanning in the electrospray ion source positive ion mode, the mass-to-charge ratios of parent ions to daughter ions in Compounds 27, 40 and 22 and tolbutamide were 395.2→178.2, 404.2→158.9, 393.4→146.2 and 455.2→165.0, respectively.
The pharmacokinetic parameters of Compounds 27, 40 and 22 were calculated by the software Phoenix™ WinNonlin Version 6.1 using the non-compartmental model. Pharmacokinetic data was calculated using the linear logarithmic trapezoidal method, with a weight of 1/Y*Y. Samples with the sample concentration below the lower limit of quantification were excluded from the calculation of pharmacokinetic parameters. […] The mean time to peak (Tmax) was represented as a median.

Series [2] can be described thus: Pharmacokinetics of Compounds 27, 40, 22 and 41 in ICR mice in different modes of administration. It counts as in vivo. The settings on record: for Drug accumulation after consecutive oral administration: 30 mg/kg oral; for AUC(0-t) / Cmax / half-life: ICR; for AUC(0-t) / Cmax / half-life / clearance: mouse, in vivo; for clearance: IV, read-out: Cl—pred (converted). From the text: WinNonlin® 6.4 was used as the calculation software for PK parameters.

A further series addresses T2, adenosine receptor A3 (Homo sapiens, UniProt P0DMS8).
T2 construct: host or cells: CHO
T2 sequence (P0DMS8 1-318): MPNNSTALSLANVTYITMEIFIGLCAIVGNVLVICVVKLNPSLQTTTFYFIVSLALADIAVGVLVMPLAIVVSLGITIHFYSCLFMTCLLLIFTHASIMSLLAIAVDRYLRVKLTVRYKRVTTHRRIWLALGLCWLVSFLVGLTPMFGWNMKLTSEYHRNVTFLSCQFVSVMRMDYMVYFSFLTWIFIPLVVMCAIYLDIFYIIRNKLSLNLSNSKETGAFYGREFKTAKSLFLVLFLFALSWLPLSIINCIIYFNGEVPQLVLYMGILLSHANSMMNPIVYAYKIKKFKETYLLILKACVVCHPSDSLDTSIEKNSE
Put plainly: cAMP experiment on Gi-coupled adenosine receptor A3 (CHO). It counts as cell-based. The settings on record: cAMP accumulation; read-out: IC50 (nM) CHO cells (ADORA3). As for the experimental part: Similarly, a CHO cell strain stably expressing the adenosine receptor A3 was taken as a study object (PerkinElmer, ES-012-C) for the experiment. The IC50 value of the compound was calculated.
For orientation: Changes in cAMP serve as a functional read-out for many G protein-coupled receptors.

[3] abbreviates: oral 30 mg/kg once a day for 7 consecutive days.
The mark [4] stands for this setting: Sprague-Dawley, oral 30 mg/kg once a day for 7 consecutive days, Day 7, mean.
The mark [5] stands for this setting: oral 30 mg/kg once a day for 7 consecutive days, Day 7, mean.
[6] abbreviates: Sprague-Dawley (SD), oral 30 mg/kg once a day, Day 1, read-out: drug exposure AUC0-t.
Setting [7] is: Sprague-Dawley (SD), oral 30 mg/kg once a day, Day 1, read-out: maximum plasma concentration Cmax.
[8] abbreviates: Sprague-Dawley (SD), oral 30 mg/kg once a day, seventh day, read-out: drug exposure AUC0-t.
Setting [9] is: Sprague-Dawley (SD), oral 30 mg/kg once a day, seventh day, read-out: maximum plasma concentration Cmax.
[10] abbreviates: Sprague-Dawley, oral 30 mg/kg once a day for 7 consecutive days, Day 7, mean, read-out: AUC0-t.
Where [11] appears, read: Sprague-Dawley, oral 30 mg/kg once a day for 7 consecutive days, Day 7, mean, read-out: Cmax.
[12] abbreviates: Sprague-Dawley, oral 30 mg/kg once a day for 7 consecutive days, Day 7.
[13] abbreviates: Sprague-Dawley, oral 30 mg/kg once a day, Day 1, mean, read-out: AUC0-t.
The mark [14] stands for this setting: Sprague-Dawley, oral 30 mg/kg once a day, Day 1, mean, read-out: Cmax.
Setting [15] is: Sprague-Dawley, oral 30 mg/kg once a day, Day 1.
Setting [16] is: po, 30 mg/kg, PO (after 7 consecutive days of administration), 30 mg/kg.
Where [17] appears, read: PO (after 7 consecutive days of administration), 30 mg/kg.

pIC50: −log10 of the molar value.

T1 sequence (P29274 whole entry): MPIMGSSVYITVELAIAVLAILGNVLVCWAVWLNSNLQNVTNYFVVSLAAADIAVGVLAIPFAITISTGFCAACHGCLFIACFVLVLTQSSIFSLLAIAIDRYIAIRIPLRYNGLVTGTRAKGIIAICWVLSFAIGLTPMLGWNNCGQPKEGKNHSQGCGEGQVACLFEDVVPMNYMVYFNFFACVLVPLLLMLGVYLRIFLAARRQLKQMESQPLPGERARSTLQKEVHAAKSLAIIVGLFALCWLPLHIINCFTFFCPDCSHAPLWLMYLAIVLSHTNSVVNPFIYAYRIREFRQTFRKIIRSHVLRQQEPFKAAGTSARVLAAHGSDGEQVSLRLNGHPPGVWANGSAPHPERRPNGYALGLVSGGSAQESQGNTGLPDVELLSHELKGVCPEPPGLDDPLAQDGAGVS

For orientation: pIC50 means the IC50 on a negative log10 scale, so that one unit is a factor of ten. Broadly, the AUC is concentration integrated over time. Usually Tmax stands for the time from dosing to the highest level. The half-life is the time in which the quantity being followed falls by half. Usually IC50 stands for the concentration that inhibits the measured activity by half. For the compound `COCCNc1ccc(CCNc2nc(N)n3nc(-c4ccco4)nc3n2)cc1` [Compound 27, 2-(furan-2-yl)-N5-(4-((2-methoxyethyl)amino)phenethyl)-[1,2,4]triazolo[1,5-a][1,3,5]triazine-5,7-diamine], the pIC50 on adenosine receptors A2A is 7.98. For the same compound, the “Accumulation after consecutive administration” value in series [1] (setting [3]) is “do not show significant accumulation”. The area under the curve (AUC) in series [1] (setting [4]) was 22200 ng·h/mL. This compound came in with a Cavg in series [1] (setting [5]) of 925 ng/mL. In series [1] (setting [5]), the Cmin is 9.23 ng/mL. Further, the AUC(0-t) in series [1] (setting [6]) stood at 29600 ng·h/mL; in series [1] (setting [8]), 22200 ng·h/mL; in series [1] (setting [10]), 22200 ng·h/mL; in series [1] (setting [13]) it was 29600 ng·h/mL; in series [2] (iv, 1 mg/kg), 495 ng·h/mL; in series [2] (po, 5 mg/kg), 3100 ng·h/mL. For the same compound, the AUC(0-t) in series [2] (setting [16]) came to 41700 ng·h/mL; in series [2] (po, 30 mg/kg, PO (single)), 33600 ng·h/mL. For the same compound, the Cmax in series [1] (setting [7]) was 7100 ng/mL; in series [1] (setting [9]), 4620 ng/mL; in series [1] (setting [11]), 4620 ng/mL; in series [1] (setting [14]), 7100 ng/mL; in series [2] (iv, 1 mg/kg), 993 ng/mL; in series [2] (po, 5 mg/kg), 1550 ng/mL. Also, the Cmax in series [2] (setting [16]) amounted to 17300 ng/mL; in series [2] (po, 30 mg/kg, PO (single)) it was 14500 ng/mL. The Tmax in series [1] (setting [12]) was 1.5 h; in series [1] (setting [15]) it was 2 h. Besides, the “Drug accumulation after consecutive oral administration” value in series [2] was “significant drug accumulation is not observed”. The half-life in series [2] (iv, 1 mg/kg) is 0.67 h; in series [2] (po, 5 mg/kg), 1.19 h; in series [2] (setting [16]) it was 1.86 h; in series [2] (po, 30 mg/kg, PO (single)), 1.12 h. In addition, the “Cl—F—pred” value in series [2] (setting [17]) is 12 mL/min/kg; in series [2] (PO (single), 30 mg/kg), 15.3 mL/min/kg; in series [2] (PO, 5 mg/kg), 27.5 mL/min/kg. This compound displayed a F in series [2] (PO, 5 mg/kg) of 125.29%. In addition, the clearance in series [2] (1 mg/kg) is 33.8 mL/min/kg. In addition, the 50% inhibitory concentration (IC50) on adenosine receptor A3 worked out at 458 nM.
For the compound `Nc1nc(NCCc2ccc(NC3COC3)cc2)nc2nc(-c3ccco3)nn12` [Compound 22, 2-(furan-2-yl)-N5-(4-(oxetan-3-ylamino)phenethyl)-[1,2,4]triazolo[1,5-a][1,3,5]triazine-5,7-diamine], on adenosine receptors A2A, the negative-log IC50 (pIC50) is 8.15. In series [1] (setting [3]), the “Accumulation after consecutive administration” value is given as “do not show significant accumulation”. Further, the AUC in series [1] (setting [4]) worked out at 6950 ng·h/mL. In series [1] (setting [5]), this compound gave a Cavg of 290 ng/mL. Moreover, the Cmin in series [1] (setting [5]) is listed as 11.4 ng/mL. The AUC(0-t) in series [1] (setting [6]) stood at 6630 ng·h/mL; in series [1] (setting [8]) it was 6950 ng·h/mL; in series [1] (setting [10]) it was 6950 ng·h/mL; in series [1] (setting [13]) it was 6630 ng·h/mL; in series [2] (iv, 1 mg/kg), 925 ng·h/mL; in series [2] (po, 5 mg/kg), 3960 ng·h/mL. Also, the AUC(0-t) is 15400 ng·h/mL in series [2] (setting [16]) and 18000 ng·h/mL in series [2] (po, 30 mg/kg, PO (single)). Moreover, the Cmax stood at 1020 ng/mL in series [1] (setting [7]); 947 ng/mL in series [1] (setting [9]); 947 ng/mL in series [1] (setting [11]); 1020 ng/mL in series [1] (setting [14]); 1690 ng/mL in series [2] (iv, 1 mg/kg); 3510 ng/mL in series [2] (po, 5 mg/kg). In addition, the Cmax in series [2] (setting [16]) came to 4800 ng/mL; in series [2] (po, 30 mg/kg, PO (single)), 9650 ng/mL. Besides, the Tmax in series [1] (setting [12]) was found to be 1.5 h; in series [1] (setting [15]), 4 h. In series [2], the “Drug accumulation after consecutive oral administration” value is reported as “significant drug accumulation is not observed”. Besides, the half-life is 0.94 h in series [2] (iv, 1 mg/kg); 2.74 h in series [2] (po, 5 mg/kg); 3.04 h in series [2] (setting [16]); 2.22 h in series [2] (po, 30 mg/kg, PO (single)). Further, the “Cl—F—pred” value in series [2] (setting [17]) amounted to 32.5 mL/min/kg; in series [2] (PO (single), 30 mg/kg), 27.8 mL/min/kg; in series [2] (PO, 5 mg/kg), 21 mL/min/kg. This compound showed a F in series [2] (PO, 5 mg/kg) of 85.72%. Moreover, the clearance in series [2] (1 mg/kg) is 18.2 mL/min/kg. Also, the IC50 on adenosine receptor A3 was 585 nM.
As to `CCn1c(=O)c2c(nc(/C=C/c3ccc(OC)c(OC)c3)n2C)n(CC)c1=O` [Istradefylline, reference compound], on adenosine receptor A3, the IC50 turned out to be 2080 nM.

Values taken from US20230048888A1, “USE OF TRIAZOLOTRIAZINE DERIVATIVE IN TREATMENT OF DISEASES” (ZHEJIANG VIMGREEN PHARMACEUTICALS, LTD., priority 2019, published 2023).
